Numbers after ± are expanded uncertainties.
Assay: xn = mol fraction of the nth substance listed
Conditions: 101 kPa, Liquid; for speed of sound: Sing-around technique in a fixed-path interferometer

## Cc1cccc(C)c1 [1,3-dimethylbenzene] + COC(C)(C)C
288.15 K, x2 = 0
  speed of sound: 1362.7 ± 2.2 m/s
  mass density: 868.459 ± 0.37 kg/m3
288.15 K, x2 = 0.047
  speed of sound: 1350.6 ± 2.2 m/s
  mass density: 863.235 ± 0.39 kg/m3
288.15 K, x2 = 0.115
  speed of sound: 1332.6 ± 2.2 m/s
  mass density: 855.522 ± 0.4 kg/m3
288.15 K, x2 = 0.212
  speed of sound: 1306.8 ± 2.2 m/s
  mass density: 844.315 ± 0.42 kg/m3
288.15 K, x2 = 0.304
  speed of sound: 1282.4 ± 2.2 m/s
  mass density: 833.627 ± 0.44 kg/m3
288.15 K, x2 = 0.399
  speed of sound: 1256.5 ± 2.2 m/s
  mass density: 822.223 ± 0.45 kg/m3
288.15 K, x2 = 0.5
  speed of sound: 1228.3 ± 2.2 m/s
  mass density: 809.928 ± 0.47 kg/m3
288.15 K, x2 = 0.601
  speed of sound: 1200.9 ± 2.2 m/s
  mass density: 797.423 ± 0.49 kg/m3
288.15 K, x2 = 0.651
  speed of sound: 1185.3 ± 2.2 m/s
  mass density: 791.063 ± 0.5 kg/m3
288.15 K, x2 = 0.794
  speed of sound: 1143.4 ± 2.2 m/s
  mass density: 772.47 ± 0.53 kg/m3
288.15 K, x2 = 0.898
  speed of sound: 1113.2 ± 2.2 m/s
  mass density: 758.81 ± 0.55 kg/m3
288.15 K, x2 = 0.954
  speed of sound: 1097.5 ± 2.2 m/s
  mass density: 751.317 ± 0.56 kg/m3
290.65 K, x2 = 0
  speed of sound: 1352.1 ± 2.2 m/s
  mass density: 866.318 ± 0.37 kg/m3
290.65 K, x2 = 0.047
  speed of sound: 1340.1 ± 2.2 m/s
  mass density: 861.081 ± 0.4 kg/m3
290.65 K, x2 = 0.115
  speed of sound: 1322.5 ± 2.2 m/s
  mass density: 853.297 ± 0.41 kg/m3
290.65 K, x2 = 0.212
  speed of sound: 1296.1 ± 2.2 m/s
  mass density: 842.102 ± 0.42 kg/m3
290.65 K, x2 = 0.304
  speed of sound: 1271.5 ± 2.2 m/s
  mass density: 831.375 ± 0.44 kg/m3
290.65 K, x2 = 0.399
  speed of sound: 1245.6 ± 2.2 m/s
  mass density: 819.939 ± 0.46 kg/m3
290.65 K, x2 = 0.5
  speed of sound: 1217.4 ± 2.2 m/s
  mass density: 807.6 ± 0.47 kg/m3
290.65 K, x2 = 0.601
  speed of sound: 1189.7 ± 2.2 m/s
  mass density: 795.051 ± 0.49 kg/m3
290.65 K, x2 = 0.651
  speed of sound: 1173.8 ± 2.2 m/s
  mass density: 788.663 ± 0.5 kg/m3
290.65 K, x2 = 0.794
  speed of sound: 1132 ± 2.2 m/s
  mass density: 769.999 ± 0.53 kg/m3
290.65 K, x2 = 0.898
  speed of sound: 1101.5 ± 2.2 m/s
  mass density: 756.279 ± 0.55 kg/m3
290.65 K, x2 = 0.954
  speed of sound: 1085.7 ± 2.2 m/s
  mass density: 748.754 ± 0.56 kg/m3
293.15 K, x2 = 0
  speed of sound: 1341.7 ± 2.2 m/s
  mass density: 864.177 ± 0.38 kg/m3
293.15 K, x2 = 0.047
  speed of sound: 1329.7 ± 2.2 m/s
  mass density: 858.922 ± 0.4 kg/m3
293.15 K, x2 = 0.115
  speed of sound: 1312 ± 2.2 m/s
  mass density: 851.118 ± 0.41 kg/m3
293.15 K, x2 = 0.212
  speed of sound: 1285.5 ± 2.2 m/s
  mass density: 839.887 ± 0.43 kg/m3
293.15 K, x2 = 0.304
  speed of sound: 1260.8 ± 2.2 m/s
  mass density: 829.126 ± 0.44 kg/m3
293.15 K, x2 = 0.399
  speed of sound: 1234.7 ± 2.2 m/s
  mass density: 817.65 ± 0.46 kg/m3
293.15 K, x2 = 0.5
  speed of sound: 1206.5 ± 2.2 m/s
  mass density: 805.27 ± 0.48 kg/m3
293.15 K, x2 = 0.601
  speed of sound: 1178.5 ± 2.2 m/s
  mass density: 792.671 ± 0.5 kg/m3
293.15 K, x2 = 0.651
  speed of sound: 1162.6 ± 2.2 m/s
  mass density: 786.26 ± 0.51 kg/m3
293.15 K, x2 = 0.794
  speed of sound: 1120.7 ± 2.2 m/s
  mass density: 767.519 ± 0.54 kg/m3
293.15 K, x2 = 0.898
  speed of sound: 1090 ± 2.2 m/s
  mass density: 753.738 ± 0.56 kg/m3
293.15 K, x2 = 0.954
  speed of sound: 1074.1 ± 2.2 m/s
  mass density: 746.179 ± 0.57 kg/m3
295.65 K, x2 = 0
  speed of sound: 1331.3 ± 2.2 m/s
  mass density: 862.035 ± 0.38 kg/m3
295.65 K, x2 = 0.047
  speed of sound: 1319 ± 2.2 m/s
  mass density: 856.763 ± 0.4 kg/m3
295.65 K, x2 = 0.115
  speed of sound: 1301.5 ± 2.2 m/s
  mass density: 848.935 ± 0.41 kg/m3
295.65 K, x2 = 0.212
  speed of sound: 1274.9 ± 2.2 m/s
  mass density: 837.67 ± 0.43 kg/m3
295.65 K, x2 = 0.304
  speed of sound: 1250.1 ± 2.2 m/s
  mass density: 826.872 ± 0.45 kg/m3
295.65 K, x2 = 0.399
  speed of sound: 1223.9 ± 2.2 m/s
  mass density: 815.358 ± 0.46 kg/m3
295.65 K, x2 = 0.5
  speed of sound: 1195.6 ± 2.2 m/s
  mass density: 802.93 ± 0.48 kg/m3
295.65 K, x2 = 0.601
  speed of sound: 1167.3 ± 2.2 m/s
  mass density: 790.285 ± 0.5 kg/m3
295.65 K, x2 = 0.651
  speed of sound: 1151.5 ± 2.2 m/s
  mass density: 783.85 ± 0.51 kg/m3
295.65 K, x2 = 0.794
  speed of sound: 1109.4 ± 2.2 m/s
  mass density: 765.033 ± 0.54 kg/m3
295.65 K, x2 = 0.898
  speed of sound: 1078.5 ± 2.2 m/s
  mass density: 751.19 ± 0.56 kg/m3
295.65 K, x2 = 0.954
  speed of sound: 1062.5 ± 2.2 m/s
  mass density: 743.594 ± 0.57 kg/m3
298.15 K, x2 = 0
  speed of sound: 1320.9 ± 2.2 m/s
  mass density: 859.89 ± 0.38 kg/m3
298.15 K, x2 = 0.047
  speed of sound: 1308.8 ± 2.2 m/s
  mass density: 854.604 ± 0.41 kg/m3
298.15 K, x2 = 0.115
  speed of sound: 1291 ± 2.2 m/s
  mass density: 846.749 ± 0.42 kg/m3
298.15 K, x2 = 0.212
  speed of sound: 1264.3 ± 2.2 m/s
  mass density: 835.447 ± 0.43 kg/m3
298.15 K, x2 = 0.304
  speed of sound: 1239.4 ± 2.2 m/s
  mass density: 824.615 ± 0.45 kg/m3
298.15 K, x2 = 0.399
  speed of sound: 1213.1 ± 2.2 m/s
  mass density: 813.059 ± 0.47 kg/m3
298.15 K, x2 = 0.5
  speed of sound: 1184.7 ± 2.2 m/s
  mass density: 800.588 ± 0.48 kg/m3
298.15 K, x2 = 0.601
  speed of sound: 1156 ± 2.2 m/s
  mass density: 787.899 ± 0.5 kg/m3
298.15 K, x2 = 0.651
  speed of sound: 1140.4 ± 2.2 m/s
  mass density: 781.433 ± 0.52 kg/m3
298.15 K, x2 = 0.794
  speed of sound: 1098.1 ± 2.2 m/s
  mass density: 762.537 ± 0.54 kg/m3
298.15 K, x2 = 0.898
  speed of sound: 1066.9 ± 2.2 m/s
  mass density: 748.629 ± 0.56 kg/m3
298.15 K, x2 = 0.954
  speed of sound: 1050.9 ± 2.2 m/s
  mass density: 740.997 ± 0.57 kg/m3
300.65 K, x2 = 0
  speed of sound: 1310.6 ± 2.2 m/s
  mass density: 857.742 ± 0.38 kg/m3
300.65 K, x2 = 0.047
  speed of sound: 1298.5 ± 2.2 m/s
  mass density: 852.439 ± 0.41 kg/m3
300.65 K, x2 = 0.115
  speed of sound: 1280.5 ± 2.2 m/s
  mass density: 844.562 ± 0.42 kg/m3
300.65 K, x2 = 0.212
  speed of sound: 1253.8 ± 2.2 m/s
  mass density: 833.221 ± 0.44 kg/m3
300.65 K, x2 = 0.304
  speed of sound: 1228.8 ± 2.2 m/s
  mass density: 822.354 ± 0.45 kg/m3
300.65 K, x2 = 0.399
  speed of sound: 1202.3 ± 2.2 m/s
  mass density: 810.758 ± 0.47 kg/m3
300.65 K, x2 = 0.5
  speed of sound: 1173.9 ± 2.2 m/s
  mass density: 798.24 ± 0.49 kg/m3
300.65 K, x2 = 0.601
  speed of sound: 1144.9 ± 2.2 m/s
  mass density: 785.504 ± 0.51 kg/m3
300.65 K, x2 = 0.651
  speed of sound: 1129.3 ± 2.2 m/s
  mass density: 779.011 ± 0.52 kg/m3
300.65 K, x2 = 0.794
  speed of sound: 1086.9 ± 2.2 m/s
  mass density: 760.033 ± 0.55 kg/m3
300.65 K, x2 = 0.898
  speed of sound: 1055.5 ± 2.2 m/s
  mass density: 746.061 ± 0.57 kg/m3
300.65 K, x2 = 0.954
  speed of sound: 1039.4 ± 2.2 m/s
  mass density: 738.393 ± 0.58 kg/m3
303.15 K, x2 = 0
  speed of sound: 1300.3 ± 2.2 m/s
  mass density: 855.593 ± 0.39 kg/m3
303.15 K, x2 = 0.047
  speed of sound: 1288.1 ± 2.2 m/s
  mass density: 850.273 ± 0.41 kg/m3
303.15 K, x2 = 0.115
  speed of sound: 1270 ± 2.2 m/s
  mass density: 842.425 ± 0.42 kg/m3
303.15 K, x2 = 0.212
  speed of sound: 1243.3 ± 2.2 m/s
  mass density: 830.994 ± 0.44 kg/m3
303.15 K, x2 = 0.304
  speed of sound: 1218.2 ± 2.2 m/s
  mass density: 820.086 ± 0.46 kg/m3
303.15 K, x2 = 0.399
  speed of sound: 1191.6 ± 2.2 m/s
  mass density: 808.453 ± 0.47 kg/m3
303.15 K, x2 = 0.5
  speed of sound: 1163.1 ± 2.2 m/s
  mass density: 795.888 ± 0.49 kg/m3
303.15 K, x2 = 0.601
  speed of sound: 1133.8 ± 2.2 m/s
  mass density: 783.103 ± 0.51 kg/m3
303.15 K, x2 = 0.651
  speed of sound: 1118.3 ± 2.2 m/s
  mass density: 776.58 ± 0.52 kg/m3
303.15 K, x2 = 0.794
  speed of sound: 1075.7 ± 2.2 m/s
  mass density: 757.521 ± 0.55 kg/m3
303.15 K, x2 = 0.898
  speed of sound: 1044 ± 2.2 m/s
  mass density: 743.481 ± 0.57 kg/m3
303.15 K, x2 = 0.954
  speed of sound: 1027.8 ± 2.2 m/s
  mass density: 735.774 ± 0.58 kg/m3
305.65 K, x2 = 0
  speed of sound: 1290 ± 2.2 m/s
305.65 K, x2 = 0.047
  speed of sound: 1277.8 ± 2.2 m/s
305.65 K, x2 = 0.115
  speed of sound: 1259.7 ± 2.2 m/s
305.65 K, x2 = 0.212
  speed of sound: 1232.9 ± 2.2 m/s
305.65 K, x2 = 0.304
  speed of sound: 1207.7 ± 2.2 m/s
305.65 K, x2 = 0.399
  speed of sound: 1180.9 ± 2.2 m/s
305.65 K, x2 = 0.5
  speed of sound: 1152.3 ± 2.2 m/s
305.65 K, x2 = 0.601
  speed of sound: 1122.8 ± 2.2 m/s
305.65 K, x2 = 0.651
  speed of sound: 1107.3 ± 2.2 m/s
305.65 K, x2 = 0.794
  speed of sound: 1064.7 ± 2.2 m/s
305.65 K, x2 = 0.898
  speed of sound: 1032.7 ± 2.2 m/s
305.65 K, x2 = 0.954
  speed of sound: 1016.3 ± 2.2 m/s
